Measured values as given in patent US6713477B1, “Hydroxamic acid derivatives” (Sumitomo Pharmaceuticals Company, Limited, priority 2000, dated 2004).

Assays:
[1] = molecular target: T1, MMP-9 (Homo sapiens, UniProt P14780); experiment: Inhibition assay against MMP-9 (fluorescent MCA-labeled substrate); format: biochemical; conditions: active MMP at 20 nM, 37° C., 1.5 hours
T1 construct: Both enzymes were commercially available as active forms (Yagai-Cosmobio); purchased Yagai-Cosmobio
Experimental: (§1) Both enzymes were commercially available as active forms (Yagai-Cosmobio) and were used for inhibition assays.
(§2) Enzymatic assays were performed in accordance with C. G. Knight's method (FEBS Lett., 296(3), 263-266 (1992)). The fluorescent MCA-labeled substrate, (7-methoxycumaline-4-yl)-Pro-Leu-Gly-Leu-L-[N-(2,4-dinitrophenyl)-L-2,3-diaminopropionyl]-Ala-Arg-NH2 (Peptide Institute. Inc.) was used for measuring the kinetics of inhibition for each tested compound.
(§3) The substrate was incubated at 37° C. for 1.5 hours (MMP-1; for 24 hours) with active MMP (at 20 nM, except MMP-13 at 5 nM) and a test compound in assay buffer containing 100 mM Tris-HCl (pH7.5), 10 mM CaCl2, 100 MM NaCl and 0.05% Brij-35.

[2] = molecular target: T2, MMP-3 (Matrix Metalloproteinase-3, Stromelysin-1) (Homo sapiens, UniProt P08254); experiment: Inhibition assay against MMP-3 (fluorescent MCA-labeled substrate); format: biochemical; conditions: Table 10; active MMP at 20 nM, 37° C., 1.5 hours; read-out: IC50 MMP3
T2 construct: C-terminal truncated form of human prostromelysin cDNA; made in house; host or cells: E. coli
Experimental: C-terminal truncated form of human prostromelysin cDNA (proMMP-3, cDNA sequence in Nature, 348, 699-704 (1990)) was subcloned, expressed in E.coli and purified as described previously (Biochemistry 30, 6476-6483 (1991)). Activation of proMMP-3 was achieved by treatment with 1 mM 4-aminophenylmercuric acetate at 37° C. for 60 min.
as §2, §3

[3] = molecular target: T3, MMP-13 (Matrix Metalloproteinase-13, Collagenase-3) (Homo sapiens, UniProt P45452); experiment: Inhibition assay against MMP-13 (fluorescent MCA-labeled substrate); format: biochemical; conditions: Table 10; active MMP-13 at 5 nM, 37° C., 1.5 hours; read-out: IC50 MMP13
T3 construct: made in house; host or cells: E. coli BL21 (DE3), pET11a
From the text: To subclone C-terminal truncated form of procollagenase-3 (proMMP-13) cDNA (J.Biol.Chem., 269(24), 16766-16773 (1994)), two synthetic oligonucleotide primer (5′-[…]-3′ and 5′-[…]-3′: the former incorporates sequences for a unique NdeI site (underlined) including initial methionine, and the latter has sequences for a stop codon and BamHI site (underlined)) were used with human chondrocyte cDNA library (CLONTECH) in PCR. With these primers and Pfu DNA polymerase (STRATAGENE) in PCR, 767 bp fragment was generated, which encodes 84 amino acid prosequence and 164 amino acids of mature MMP-13. The fragment was digested with NdaI and BamHI, ligated into the NdeI and BamHI sites of pET11a (STRATAGENE), transformed in E.coli BL21 (DE3) and cultured. The crude cell extract was prepared as described in Biochemistry. The extract was dialyzed against 20 mM Tris-HCl(pH7.2)/5 mM CaCl2/0.02% NaN3 and applied to a SP-Sepharose HP column (1.6×10 cm, Amersham-Pharmacia Biotech), and elution was performed with 50 mL linear gradient of 0 to 0.3 M NaCl (partially purified proMMP-13 was eluted at 0.2 M approximately). The fraction was dialyzed against 20 mM Tris-HCl(pH7.9)/5 mM CaCl2,/200 mM (NH4)2SO4/0.02% NaN3 and applied to a Phenyl Sepharose HP column (1.6×5 cm, Amersham-Pharmacia Biotech), and elution was performed with 20 mL linear gradient of 0.2 to 0 M (NH4)2SO4 (pure proHMP-13 was eluted at 50 mM approximately). The fraction was concentrated by YM-5 ultrafiltration membrane and activated with 4-aminophenylmercuric acetate and active MMP-13 was separated from propeptide fragments by gel filtration chromatography as described in Biochemistry.
as §2, §3

[4] = molecular target: T4, MMP-2 (Homo sapiens, UniProt P08253); experiment: Inhibition assay against MMP-2 (fluorescent MCA-labeled substrate); format: biochemical; conditions: active MMP at 20 nM, 37° C., 1.5 hours
T4 construct: Both enzymes were commercially available as active forms (Yagai-Cosmobio); purchased Yagai-Cosmobio
T4 sequence (P08253 110-660): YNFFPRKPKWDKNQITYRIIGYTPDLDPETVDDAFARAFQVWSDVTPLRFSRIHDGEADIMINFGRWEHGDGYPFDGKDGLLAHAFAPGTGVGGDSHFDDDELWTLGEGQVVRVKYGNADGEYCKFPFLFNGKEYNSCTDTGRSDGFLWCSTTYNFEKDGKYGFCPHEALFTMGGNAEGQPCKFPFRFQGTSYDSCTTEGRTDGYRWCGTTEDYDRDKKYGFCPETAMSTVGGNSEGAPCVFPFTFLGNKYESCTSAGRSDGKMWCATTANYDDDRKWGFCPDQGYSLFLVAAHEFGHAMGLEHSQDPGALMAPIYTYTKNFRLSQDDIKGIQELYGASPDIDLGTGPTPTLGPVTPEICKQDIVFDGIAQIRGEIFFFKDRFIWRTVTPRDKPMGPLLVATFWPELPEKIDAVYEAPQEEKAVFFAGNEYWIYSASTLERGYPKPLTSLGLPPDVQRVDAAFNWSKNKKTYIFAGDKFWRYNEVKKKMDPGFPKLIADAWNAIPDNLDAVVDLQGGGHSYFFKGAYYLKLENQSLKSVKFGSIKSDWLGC
Experimental: as §1, §2, §3

[5] = system: TNF-α release from RAW 267.4; experiment: Inhibition ELISA for Tumor Necrosis Factor-α (TNF-α) release, LPS-stimulated RAW 267.4 cells; format: cell-based; conditions: Mus musculus, RAW267.4, LPS-stimulated RAW 267.4, 24 hours, read-out: Inhibition of TNF production at 5 μM
Experimental: RAW 267.4 (derived from mouse monocytes) was seeded in RPMI1640 containing 10% of FBS (GIBCO BRL) at 100 μL/well (5×10^5 cells/mL) onto 96-well microplates and cultured at 37° C., 5% CO2. After culturing for 4 hours, each test compound diluted in RPMI1640 was added at 50 μL/well. 15 minutes later, […] LPS (DIFCO) diluted in RPMI1640 was added at 50 μL/well and cultured for 24 hours.
TNF-α produced was measured by ELISA as usual. (For example; J. Cellular Physiol. 154, 479 (1993)) Absorbance at 450 nm (normalized at 620 nm) was measured and percentage of the amount of TNF-α release for each tested compound (n=2) was determined (0% for untreated control (n=4), and 100% for LPS stimulation (n=4)).

T1 sequence (P14780 107-707 limits assumed, species assumed): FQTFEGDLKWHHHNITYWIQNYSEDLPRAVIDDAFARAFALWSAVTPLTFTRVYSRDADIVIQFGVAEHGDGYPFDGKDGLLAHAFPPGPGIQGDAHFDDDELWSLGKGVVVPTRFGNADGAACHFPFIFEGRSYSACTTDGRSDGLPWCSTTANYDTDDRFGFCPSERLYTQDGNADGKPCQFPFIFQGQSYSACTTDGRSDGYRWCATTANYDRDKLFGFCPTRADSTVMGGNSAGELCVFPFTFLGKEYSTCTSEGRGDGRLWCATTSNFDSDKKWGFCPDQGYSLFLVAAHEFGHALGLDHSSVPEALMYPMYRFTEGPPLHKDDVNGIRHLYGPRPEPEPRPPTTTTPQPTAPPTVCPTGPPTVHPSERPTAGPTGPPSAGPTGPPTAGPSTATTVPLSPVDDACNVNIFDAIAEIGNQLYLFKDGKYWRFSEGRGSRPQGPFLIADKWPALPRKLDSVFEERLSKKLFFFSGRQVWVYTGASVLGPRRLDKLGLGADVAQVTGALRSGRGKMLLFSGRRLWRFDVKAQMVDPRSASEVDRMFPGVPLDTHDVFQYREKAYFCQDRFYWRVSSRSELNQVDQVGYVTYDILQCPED
T2 sequence (P08254 100-272 limits assumed): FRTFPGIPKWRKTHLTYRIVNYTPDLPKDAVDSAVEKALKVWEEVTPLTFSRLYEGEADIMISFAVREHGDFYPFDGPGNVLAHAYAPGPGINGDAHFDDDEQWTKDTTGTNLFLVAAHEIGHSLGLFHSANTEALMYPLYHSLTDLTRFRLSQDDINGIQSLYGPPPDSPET

SMILES | IC50 [1] [nM] | IC50 [2] [nM] | IC50 [3] [nM] | IC50 [4] [nM] | inhibition at 5 µM [5] [%]
COc1ccc(C2SCC(=O)N2[C@@H](CC(C)C)C(=O)NO)cc1 (stereo partly drawn) [Example 21, 3-[(1S)-(N-Hydroxyaminocarbonyl)-3-methylbutyl]-2-(4-methoxyphenyl)-1,3-thiazolidine-4-one] | > 1000 | – | – | – | –
O=C(CN1C(=O)/C(=C/c2ccc(Oc3ccccc3)cc2)Sc2ccccc21)NO [Example 368] | < 10 | 1500 | 36 | 300 | 30
COc1ccc(/C=C2\Sc3ccccc3N(CC(=O)NO)C2=O)cc1 [Example 365, 2H-2(Z)-(4-Methoxybenzylidene)-1,4-benzothiazin-3(4H)-one-4-yl-acetic Acid N-Hydroxylamide] | 110 | – | – | 320 | 20
CCCCOc1ccc(C=C2Sc3ccccc3N(CC(=O)NO)C2=O)cc1 [Example 369] | 200 | – | – | > 1000 | –
